Source: ChEMBL document CHEMBL5584255, “Synthesis and antibacterial medicinal evaluation of carbothioamido hydrazonyl thiazolylquinolone with multitargeting antimicrobial potential to combat increasingly global resistance” (Eur J Med Chem, 2024)
Converted amounts (≈) assume the structure as drawn.

Experiments:
Type in all cases: functional
Staphylococcus aureus [1] = test: Antibacterial activity against Staphylococcus aureus ATCC 25923 by microbroth dilution method
Staphylococcus aureus [2] = test: Antibacterial activity against methicillin-resistant Staphylococcus aureus N315 by microbroth dilution method
Staphylococcus aureus [3] = test: Antibacterial activity against Staphylococcus aureus ATCC 29213 by microbroth dilution method
Escherichia coli [4] = test: Antibacterial activity against Escherichia coli ATCC 25922 by microbroth dilution method
Candida parapsilosis = test: Antifungal activity against Candida parapsilosis ATCC 22019; settings: Lodderomyces parapsilosis
Aspergillus fumigatus = test: Antifungal activity against Aspergillus fumigatus
Pseudomonas aeruginosa [5] = test: Antibacterial activity against Pseudomonas aeruginosa ATCC 27853 by microbroth dilution method
Escherichia coli [6] = test: Antibacterial activity against drug-resistant Escherichia coli by microbroth dilution method
Acinetobacter baumannii = test: Antibacterial activity against Acinetobacter baumannii by microbroth dilution method
Pseudomonas aeruginosa [7] = test: Antibacterial activity against Pseudomonas aeruginosa by microbroth dilution method
Candida tropicalis = test: Antifungal activity against drug-resistant Candida tropicalis
Enterococcus faecalis = test: Antibacterial activity against drug-resistant Enterococcus faecalis by microbroth dilution method
Candida albicans [8] = test: Antifungal activity against Candida albicans ATCC 90023
Klebsiella pneumoniae = test: Antibacterial activity against Klebsiella pneumoniae by microbroth dilution method
Candida albicans [9] = test: Antifungal activity against drug-resistant Candida albicans
Staphylococcus aureus [10] = test: Antibacterial activity against drug-resistant Staphylococcus aureus by microbroth dilution method

Row | SMILES | MIC (Staphylococcus aureus [1]) | MIC (Staphylococcus aureus [2]) | MIC (Staphylococcus aureus [3]) | MIC (Escherichia coli [4]) | MIC (Candida parapsilosis) | MIC (Aspergillus fumigatus) | MIC (Pseudomonas aeruginosa [5]) | MIC (Escherichia coli [6]) | MIC (Acinetobacter baumannii) | MIC (Pseudomonas aeruginosa [7]) | MIC (Candida tropicalis) | MIC (Enterococcus faecalis) | MIC (Candida albicans [8]) | MIC (Klebsiella pneumoniae) | MIC (Candida albicans [9]) | MIC (Staphylococcus aureus [10])
1 | C/C(Cn1cc(-c2csc(N)n2)c(=O)c2cccc(F)c21)=N\NC(N)=S | 41 µM (≈ 16 µg/mL) | 41 µM (≈ 16 µg/mL) | 21 µM (≈ 8.2 µg/mL) | 328 µM (≈ 128 µg/mL) | 656 µM (≈ 256 µg/mL) | 1310 µM (≈ 513 µg/mL) | 328 µM (≈ 128 µg/mL) | 656 µM (≈ 256 µg/mL) | 656 µM (≈ 256 µg/mL) | 656 µM (≈ 256 µg/mL) | 656 µM (≈ 256 µg/mL) | 328 µM (≈ 128 µg/mL) | 328 µM (≈ 128 µg/mL) | 328 µM (≈ 128 µg/mL) | 656 µM (≈ 256 µg/mL) | 21 µM (≈ 8.2 µg/mL)
2 | CC(=O)Cn1cc(-c2csc(C)n2)c(=O)c2cccc(F)c21 | 405 µM (≈ 128 µg/mL) | 810 µM (≈ 256 µg/mL) | 810 µM (≈ 256 µg/mL) | 810 µM (≈ 256 µg/mL) | 405 µM (≈ 128 µg/mL) | 1620 µM (≈ 512 µg/mL) | 405 µM (≈ 128 µg/mL) | 810 µM (≈ 256 µg/mL) | 405 µM (≈ 128 µg/mL) | 1620 µM (≈ 512 µg/mL) | 405 µM (≈ 128 µg/mL) | 810 µM (≈ 256 µg/mL) | 810 µM (≈ 256 µg/mL) | 1620 µM (≈ 512 µg/mL) | 810 µM (≈ 256 µg/mL) | 810 µM (≈ 256 µg/mL)
3 | Cc1nc(-c2c[nH]c3c(F)cc(F)cc3c2=O)cs1 | 460 µM (≈ 128 µg/mL) | 460 µM (≈ 128 µg/mL) | 460 µM (≈ 128 µg/mL) | 921 µM (≈ 256 µg/mL) | 921 µM (≈ 256 µg/mL) | 921 µM (≈ 256 µg/mL) | 1840 µM (≈ 513 µg/mL) | 1840 µM (≈ 513 µg/mL) | 921 µM (≈ 256 µg/mL) | 1840 µM (≈ 513 µg/mL) | 921 µM (≈ 256 µg/mL) | 460 µM (≈ 128 µg/mL) | 460 µM (≈ 128 µg/mL) | 460 µM (≈ 128 µg/mL) | 1840 µM (≈ 513 µg/mL) | 921 µM (≈ 256 µg/mL)
4 | Nc1nc(-c2c[nH]c3cc(F)c(F)cc3c2=O)cs1 | 459 µM (≈ 128 µg/mL) | 459 µM (≈ 128 µg/mL) | 459 µM (≈ 128 µg/mL) | 459 µM (≈ 128 µg/mL) | 459 µM (≈ 128 µg/mL) | 229 µM (≈ 64 µg/mL) | 459 µM (≈ 128 µg/mL) | 459 µM (≈ 128 µg/mL) | 918 µM (≈ 256 µg/mL) | 459 µM (≈ 128 µg/mL) | 459 µM (≈ 128 µg/mL) | 918 µM (≈ 256 µg/mL) | 229 µM (≈ 64 µg/mL) | 918 µM (≈ 256 µg/mL) | 229 µM (≈ 64 µg/mL) | 459 µM (≈ 128 µg/mL)
5 | CC(=O)Cn1cc(-c2csc(N)n2)c(=O)c2cc(F)c(Cl)cc21 | 182 µM (≈ 64 µg/mL) | 365 µM (≈ 128 µg/mL) | 365 µM (≈ 128 µg/mL) | 182 µM (≈ 64 µg/mL) | 182 µM (≈ 64 µg/mL) | 365 µM (≈ 128 µg/mL) | 91 µM (≈ 32 µg/mL) | 729 µM (≈ 256 µg/mL) | 365 µM (≈ 128 µg/mL) | 91 µM (≈ 32 µg/mL) | 365 µM (≈ 128 µg/mL) | 365 µM (≈ 128 µg/mL) | 91 µM (≈ 32 µg/mL) | 729 µM (≈ 256 µg/mL) | 91 µM (≈ 32 µg/mL) | 182 µM (≈ 64 µg/mL)
6 | C/C(Cn1cc(-c2csc(C)n2)c(=O)c2cccc(F)c21)=N\NC(N)=S | 658 µM (≈ 256 µg/mL) | 1320 µM (≈ 513 µg/mL) | 329 µM (≈ 128 µg/mL) | 329 µM (≈ 128 µg/mL) | 658 µM (≈ 256 µg/mL) | 658 µM (≈ 256 µg/mL) | 329 µM (≈ 128 µg/mL) | 329 µM (≈ 128 µg/mL) | 329 µM (≈ 128 µg/mL) | 329 µM (≈ 128 µg/mL) | 329 µM (≈ 128 µg/mL) | 658 µM (≈ 256 µg/mL) | 1320 µM (≈ 513 µg/mL) | 1320 µM (≈ 513 µg/mL) | 1320 µM (≈ 513 µg/mL) | 1320 µM (≈ 513 µg/mL)
7 | CC(=O)Cn1cc(-c2csc(N)n2)c(=O)c2cc(F)cc(F)c21 | 382 µM (≈ 128 µg/mL) | 382 µM (≈ 128 µg/mL) | 382 µM (≈ 128 µg/mL) | 382 µM (≈ 128 µg/mL) | 764 µM (≈ 256 µg/mL) | 382 µM (≈ 128 µg/mL) | 191 µM (≈ 64 µg/mL) | 382 µM (≈ 128 µg/mL) | 382 µM (≈ 128 µg/mL) | 382 µM (≈ 128 µg/mL) | 382 µM (≈ 128 µg/mL) | 382 µM (≈ 128 µg/mL) | 382 µM (≈ 128 µg/mL) | 764 µM (≈ 256 µg/mL) | 764 µM (≈ 256 µg/mL) | 764 µM (≈ 256 µg/mL)
8 | C/C(Cn1cc(-c2csc(C)n2)c(=O)c2cc(F)c(Cl)cc21)=N\NC(N)=S | 605 µM (≈ 256 µg/mL) | 605 µM (≈ 256 µg/mL) | 605 µM (≈ 256 µg/mL) | 605 µM (≈ 256 µg/mL) | 605 µM (≈ 256 µg/mL) | 1210 µM (≈ 513 µg/mL) | 303 µM (≈ 128 µg/mL) | 605 µM (≈ 256 µg/mL) | 605 µM (≈ 256 µg/mL) | 605 µM (≈ 256 µg/mL) | 303 µM (≈ 128 µg/mL) | 605 µM (≈ 256 µg/mL) | 605 µM (≈ 256 µg/mL) | 605 µM (≈ 256 µg/mL) | 605 µM (≈ 256 µg/mL) | 605 µM (≈ 256 µg/mL)
9 | CCOC(=O)c1cn(C/C(C)=N/NC(N)=S)c2cc(F)c(F)cc2c1=O | 670 µM (≈ 256 µg/mL) | 1340 µM (≈ 512 µg/mL) | 335 µM (≈ 128 µg/mL) | 670 µM (≈ 256 µg/mL) | 335 µM (≈ 128 µg/mL) | 670 µM (≈ 256 µg/mL) | 335 µM (≈ 128 µg/mL) | 670 µM (≈ 256 µg/mL) | 335 µM (≈ 128 µg/mL) | 670 µM (≈ 256 µg/mL) | 670 µM (≈ 256 µg/mL) | 335 µM (≈ 128 µg/mL) | 670 µM (≈ 256 µg/mL) | 670 µM (≈ 256 µg/mL) | 1340 µM (≈ 512 µg/mL) | 670 µM (≈ 256 µg/mL)
10 | OC(Cn1cncn1)(Cn1cncn1)c1ccc(F)cc1F [FLUCONAZOLE] | – | – | – | – | 6 µM (≈ 1.84 µg/mL) | 802 µM (≈ 246 µg/mL) | – | – | – | – | 25 µM (≈ 7.66 µg/mL) | – | 3 µM (≈ 0.919 µg/mL) | – | 13 µM (≈ 3.98 µg/mL) | –
11 | C/C(Cn1cc(-c2csc(C)n2)c(=O)c2cc(F)cc(F)c21)=N\NC(N)=S | 1260 µM (≈ 513 µg/mL) | 1260 µM (≈ 513 µg/mL) | 629 µM (≈ 256 µg/mL) | 1260 µM (≈ 513 µg/mL) | 157 µM (≈ 64 µg/mL) | 629 µM (≈ 256 µg/mL) | 629 µM (≈ 256 µg/mL) | 1260 µM (≈ 513 µg/mL) | 629 µM (≈ 256 µg/mL) | 629 µM (≈ 256 µg/mL) | 1260 µM (≈ 513 µg/mL) | 1260 µM (≈ 513 µg/mL) | 1260 µM (≈ 513 µg/mL) | 314 µM (≈ 128 µg/mL) | 1260 µM (≈ 513 µg/mL) | 1260 µM (≈ 513 µg/mL)
